Experimental findings from patent publication EP4523686A1, “A SIGMA-1 RECEPTOR POSITIVE MODULATOR FOR ITS USE IN THE PREVENTION AND THE TREATMENT OF A PATHOLOGY” (priority 2023, dated 2025) are described below.

Experiment [1] relates to wfs1ab^KO zebrafish larvae. The experiment is described as follows: Visual motor response in zebrafish larvae (hyperlocomotor response). The format is in vivo. Particulars: at 3 µM in fish water. As to the method: The visual motor response assay quantifies the locomotor activity of the zebrafish larvae to light intensity changes. The protocol was previously described (Crouzier et al., 2021a, 2021b, 2022). In brief, 5 dpf larvae were transfered in a 96-well plate (#7701-1651, Whatman) with 300 µl of fish water and placed in a Zebrabox® (ViewPoint, Lissieu, France). The locomotor behavior was monitored using an automated videotracking device equipped with an infra-red (IR) camera under IR light illumination (Zebralab®, Viewpoint). The light protocol was as follow: 30 min of acclimatization in the dark (0% light intensity), then 2 cycles of 10-min duration light ON and 10-min duration light OFF periods. The brightness changes were immediate (<< 1 s). The activity was measured in mm/s. For each larva, the mobility were calculated as mean (OFF-ON) values to account for inter- and intra-group variability in locomotor response.
A phenotypic test described by Crouzier et al. (2022) was performed. […] Compounds were added in the fish water of larvae at 4 dpf for 24 h, and screening parameters included: (1) the lack of toxicity (including grossly observable morphological alterations) after 24 h exposure; (2) the locomotor increase in wfs1ab^KO larvae, expressed as % of V-treated wfs1ab^KO response; (3) the eventual alteration of locomotion in wfs1ab^WT larvae, expressed as % of V-treated wfs1ab^WT response; and (4) the Protection index (PI) calculated as detailed in the Methods section.

The target of experiment [2] is T1, SIG-1R/BiP (Homo sapiens, UniProt Q99720).
T1 construct: host or cells: CHO cells overexpressing GFP-SIG-1R
The experiment is described as follows: SIG-1R/BiP dissociation assay in GFP-SIG-1R-overexpressing CHO cells. The format is cell-based. Particulars: compound alone, at concentrations up to 30 µM. On the procedure:
CHO cells which overexpress GFP tagged-SIG-1R (gift from Tsung-Ping Su, NIDA/NIH, Baltimore, MD, USA) were maintained in DMEM/Glutamax culture medium supplemented with 10% heat inactivated FBS. GFP-SIG-1Roe CHO cells were plated in 6-well plates and treated with test compounds dissolved in culture medium for 30 min at 37°C. The reaction was terminated by removing the culture medium containing the test drug and replacing it with 1 ml of PBS. GFP-SIG-1R-oe CHO cells were harvested and suspended in PBS (pH 7.4) followed by cross-linking with 50 µg/ml of dithiobis succinimidyl propionate (ThermoFisher, France). The reaction was stopped by adding Tris/HCl 50 mM (pH 8.8). After a 15 min incubation on ice, cells were lysed with 50 mM Tris (pH 7.4), 150 mM NaCl, 1% Triton X/100, 0.3% sodium deoxycholate, 0.1% SDS buffer containing a protease inhibitor cocktail (Sigma-Aldrich, France). After centrifugation at 16,000 g for 1 min, the supernatant was incubated with Chromotek GFP-trap agarose (Proteintech, United Kingdom) overnight at 4°C.

In experiment [3] the test system is Dizocilpine-induced learning impairments in mice. The experiment is described as follows: Spontaneous alternation in the Y-maze, Dizocilpine-induced learning impairments. The format is in vivo. Particulars: at the highest dose tested (range 0.1-3 mg/kg IP). As to the method:
The Y-maze is made of grey polyvinylchloride. Each arm is 40 cm long, 13 cm high, 3 cm wide at the bottom, 10 cm wide at the top, and converging at an equal angle. Each mouse was placed at the end of one arm and allowed to move freely through the maze during an 8 min session. The series of arm entries, including possible returns into the same arm, were checked visually. An alternation is defined as entries into all three arms on consecutive occasions. The number of maximum alternations is therefore the total number of arm entries minus two and the percentage of alternation was calculated as (actual alternations / maximum alternations) × 100 (Maurice et al., 1996; Meunier et al., 2006, 2013). Exclusion criteria are locomotion < 10 or percentage of alternation < 25% or > 90%. Animals showing these readouts are excluded from the calculations. Attrition is routinely < 5% in this test.
Due to the chaperone nature of SIG-1R, a SIG-1R positive modulator behaves as an agonist in vivo, particularly on learning and memory abilities in mice (Maurice et al., 2019; Vavers et al., 2019). Convolamine was tested on Dizocilpine-induced learning impairments, a well-characterized SIG-1R-mediated response in mice (Maurice et al., 1994, 2001). The NMDA receptor noncompetitive antagonist Dizocilpine (0.15 mg/kg IP) prevented spontaneous alternation behavior (Fig. 4A) and increased mobility (Fig. 4B) in the Y-maze. […] Co-treatment with the SIG-1R antagonist NE-100 at 1 mg/kg IP, blocked the attenuating effect of Convolamine (Fig. 4C), thus confirming the SIG-1R-mediated effect.

For experiment [4] the test system is unchanged. The experiment in a line: Step-through passive avoidance, Dizocilpine-induced learning impairments. The format is in vivo. The source says:
The apparatus is a two-compartments (15 × 20 × 15 cm high) box with one illuminated with white polyvinylchloride walls and the other darkened with black polyvinylchloride walls and a grid floor. A guillotine door separates each compartment. A 60 W lamp positioned 40 cm above the apparatus lights up the white compartment during the experiment. Scrambled foot shocks (0.3 mA for 3 s) could be delivered to the grid floor using a shock generator scrambler (Lafayette Instruments, Lafayette, USA). The guillotine door was initially closed during the training session. Each mouse was placed into the white compartment. After 5 s, the door was raised. When the mouse entered the darkened compartment and placed all its paws on the grid floor, the door is closed and the foot shocks delivered for 3 s. The step-through latency (STL-Tg), that is, the latency spent to enter the darkened compartment, and the number of vocalizations were recorded. The retention test was carried out 24 h after training. Each mouse was placed again into the white compartment. After 5 s, the door was raised. The step-through latency (STL-R) was recorded up to 300 s (Meunier et al., 2006, 2013; Villard et al., 2009, 2011). An exclusion criteria was STL-Tg and STL-R < 10 s. Animals showing these readouts are excluded from the calculations. Attrition is routinely < 5% in this test.

T1 sequence (Q99720 whole entry): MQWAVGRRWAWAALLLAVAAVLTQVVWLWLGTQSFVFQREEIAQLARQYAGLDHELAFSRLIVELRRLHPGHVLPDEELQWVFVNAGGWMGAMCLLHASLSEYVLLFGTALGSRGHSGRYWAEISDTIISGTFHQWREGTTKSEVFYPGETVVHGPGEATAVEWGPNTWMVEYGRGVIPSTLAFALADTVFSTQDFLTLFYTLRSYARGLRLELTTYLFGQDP

In the case of `CCCN(CCC)CCc1ccc(OC)c(OCCc2ccccc2)c1` [NE-100, reference compound], the “hyperlocomotor response of wfs1ab^KO zebrafish (in words)” value in experiment [1] is reported as “failed to affect”. Also, the “dissociation of SIG-1R from BiP (in words)” value in experiment [2] is reported as “ineffective”.

For the molecule `COc1ccc(C(=O)OC2CC3CCC(C2)N3)cc1OC` (stereo not drawn) [Convolvine, reference compound], in experiment [1], the “hyperlocomotor response of wfs1ab^KO zebrafish (in words)” value is “failed to attenuate”. Also, the “Dizocilpine-induced alternation deficit (in words)” value in experiment [3] was “significantly attenuated”. Moreover, in experiment [4] (at 0.3 mg/kg IP), the “Dizocilpine-induced decrease in step-through latency (in words)” value is “attenuated, but in a non-significant manner”. Besides, the “Dizocilpine-induced increase in escape latency (in words)” value in experiment [4] (at the highest doses tested (range 0.1-3 mg/kg IP)) was “attenuated, but in a non-significant manner”.
